We go through 8 molecules from PubChem BioAssay (NCI).

Among the test systems are HCT-15 colon; HT29 colon; IGROV1 ovarian; LOX IMVI melanoma; MCF7 breast; MDA-MB-435; NCI-H226 lung; SK-MEL-28 melanoma; SNB-19 CNS; UACC-257 melanoma.
Common to all, as to experiment: NCI anticancer screen, dose series, 48 h

Several values for one entry are separate records, joined by “and”; a condition that tells them apart may be missing. Equal values may be shown once.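 96-well plates; 48 h exposure; 5 concentrations. Endpoints by linear interpolation between flanking doses. Not reached: highest tested concentration assigned. GI50 marks 50% less growth. TGI: total growth inhibition.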

As to `CC1(C)[C@H](O)[C@H](F)C[C@@]2(C)Oc3ccc(C(=O)Nc4ccc5c(c4)NC(=O)C54CCN(CCCCC#N)CC4)cc3C[C@H]12`, the GI50 with HCT-15 colon is 5.43 µM and 1.59 µM; in the assay with HT29 colon it was 1.8 µM and 1.69 µM; with IGROV1 ovarian, 2.05 µM and 3.63 µM; in the assay with LOX IMVI melanoma, 0.0396 µM; in the assay on MCF7 breast it was 0.00995 µM; with MDA-MB-435, 0.09 µM and 0.0946 µM. For the same molecule, the GI50 in the assay on NCI-H226 lung was 2.91 µM; in the assay on SK-MEL-28 melanoma, 1.25 µM and 1.2 µM; in the assay on SNB-19 CNS, 0.412 µM and 1.07 µM; in the assay with UACC-257 melanoma it was 1.57 µM. Also, the TGI in the assay with HCT-15 colon was 19.1 µM; in the assay on HT29 colon it was 6.73 µM; in the assay with IGROV1 ovarian, 34.4 µM; with LOX IMVI melanoma, 2.82 µM and 2.17 µM; in the assay on MCF7 breast, 9.63 µM and 8.28 µM; in the assay with MDA-MB-435, 1.83 µM and 2.94 µM. Moreover, the TGI was 17.4 µM in the assay on NCI-H226 lung; 3.61 µM and 3.43 µM with SK-MEL-28 melanoma; 6.81 µM in the assay on SNB-19 CNS; 5.02 µM in the assay on UACC-257 melanoma.

`CC1=NNC(=S)NCCCN2CCN(CCCNC(=S)NN=C(C)C=NNC(=S)NCCCN3CCN(CCCNC(=S)NN=C1)CC3)CC2`: the TGI with HCT-15 colon, in the assay on HT29 colon, in the assay on IGROV1 ovarian, with LOX IMVI melanoma, in the assay with MCF7 breast and in the assay with MDA-MB-435 was more than 100 µM throughout. The TGI in the assay with NCI-H226 lung, in the assay on SK-MEL-28 melanoma, with SNB-19 CNS and in the assay on UACC-257 melanoma was more than 100 µM each time.

As for `O=[N+]([O-])c1cc(Cc2cc([N+](=O)[O-])c3cccnc3c2O)c(O)c2ncccc12`, the TGI was 66.4 µM with HCT-15 colon; more than 73.1 µM in the assay on HT29 colon; 17.2 µM in the assay with IGROV1 ovarian; more than 66.2 µM with LOX IMVI melanoma; 29.6 µM with MCF7 breast; 32.7 µM with MDA-MB-435. Also, the TGI stood at 43.5 µM in the assay with NCI-H226 lung, 37.4 µM in the assay on SK-MEL-28 melanoma, 51.2 µM with SNB-19 CNS and 14.1 µM in the assay on UACC-257 melanoma.

For the molecule `COc1ccc(C2CC(c3ccc(N(C)C)cc3)=NN2c2ccc(S(N)(=O)=O)cc2)cc1` (stereo not given), the GI50 in the assay with HCT-15 colon is 2.99 µM; with HT29 colon, 3.5 µM; with IGROV1 ovarian, 4.31 µM; in the assay on LOX IMVI melanoma, 1.87 µM; in the assay with MCF7 breast, 3 µM; with MDA-MB-435, 3.25 µM. Moreover, the GI50 was 2.54 µM in the assay on NCI-H226 lung, 4.81 µM with SK-MEL-28 melanoma, 5.94 µM in the assay with SNB-19 CNS and 4.48 µM in the assay with UACC-257 melanoma. The TGI is more than 100 µM in the assay with HCT-15 colon; 10.7 µM in the assay on HT29 colon; more than 100 µM in the assay with IGROV1 ovarian; 4.02 µM with LOX IMVI melanoma; 21.7 µM in the assay with MCF7 breast; 34.4 µM with MDA-MB-435. The TGI in the assay with NCI-H226 lung was 8.09 µM; in the assay on SK-MEL-28 melanoma, 93.8 µM; in the assay with SNB-19 CNS it was more than 100 µM; in the assay with UACC-257 melanoma, more than 100 µM.

For `Cn1c(C(=O)c2cccc3ccccc23)nc2ccccc21`, the GI50 in the assay with HCT-15 colon was more than 100 µM; in the assay with HT29 colon, more than 100 µM; in the assay with IGROV1 ovarian, more than 100 µM; with LOX IMVI melanoma it was more than 100 µM; in the assay with MCF7 breast, 3.81 µM; in the assay on MDA-MB-435, more than 100 µM. Also, the GI50 in the assay with NCI-H226 lung, in the assay with SK-MEL-28 melanoma, in the assay on SNB-19 CNS and with UACC-257 melanoma was more than 100 µM in each case. In addition, the TGI in the assay with HCT-15 colon, with HT29 colon, with IGROV1 ovarian, with LOX IMVI melanoma, in the assay with MCF7 breast and with MDA-MB-435 was more than 100 µM each time. Moreover, the TGI in the assay on NCI-H226 lung, in the assay with SK-MEL-28 melanoma, in the assay with SNB-19 CNS and with UACC-257 melanoma was more than 100 µM throughout.

On to `COCCOCCOCCOCCOC(=O)OC[n+]1ccc(NC(=NCCCCCCOc2ccc(Cl)cc2)NC#N)cc1`, for which the GI50 is less than 0.01 µM in the assay with HCT-15 colon; 0.0369 µM in the assay with HT29 colon; 0.465 µM in the assay with IGROV1 ovarian; 2.57 µM in the assay with LOX IMVI melanoma; 0.873 µM with MCF7 breast; less than 0.01 µM with MDA-MB-435. For the same molecule, the GI50 in the assay on NCI-H226 lung was 12.7 µM; with SK-MEL-28 melanoma, 11.1 µM; with SNB-19 CNS, 0.199 µM; with UACC-257 melanoma, 7.79 µM. The TGI in the assay with HCT-15 colon came out at 17.9 µM; with HT29 colon, 18.2 µM; with IGROV1 ovarian, 24.7 µM; with LOX IMVI melanoma, 20.6 µM; in the assay with MCF7 breast, 17.4 µM; in the assay on MDA-MB-435, 14.7 µM. The TGI in the assay on NCI-H226 lung is 30.4 µM; in the assay with SK-MEL-28 melanoma, 23.5 µM; in the assay on SNB-19 CNS, 18.3 µM; in the assay with UACC-257 melanoma it was 21.8 µM.

As for `O=c1[nH]c2ccccc2n1C1CCN(CCCC(c2ccc(F)cc2)c2ccc(F)cc2)CC1`, the GI50 with HCT-15 colon was 1.77 µM; with HT29 colon, 1.12 µM; in the assay on IGROV1 ovarian it was 1.96 µM; in the assay on LOX IMVI melanoma, 1.61 µM and 2.55 µM; in the assay with MCF7 breast, 1.59 µM and 5.3 µM; in the assay with MDA-MB-435, 1.54 µM and 4.49 µM. For the same molecule, the GI50 with NCI-H226 lung is 1.51 µM and 6.66 µM; in the assay with SK-MEL-28 melanoma, 1.61 µM; in the assay on SNB-19 CNS, 1.67 µM; with UACC-257 melanoma it was 1.58 µM and 2.83 µM. Moreover, the TGI with HCT-15 colon is 3.95 µM and 19.7 µM; in the assay on HT29 colon, 2.52 µM and 7.2 µM; in the assay on IGROV1 ovarian, 3.86 µM and 32.4 µM; in the assay on LOX IMVI melanoma, 3.02 µM and 6.62 µM; with MCF7 breast it was 3.1 µM and 11.8 µM; in the assay with MDA-MB-435, 3.06 µM and 11.5 µM. The TGI in the assay with NCI-H226 lung is 2.97 µM and 20.3 µM; with SK-MEL-28 melanoma, 2.99 µM and 5.86 µM; in the assay on SNB-19 CNS it was 3.29 µM and 28.8 µM; in the assay on UACC-257 melanoma, 3.24 µM and 7.83 µM.

Take `N#CCNC(=O)c1ccc(-c2ccnc(Nc3ccc(N4CCOCC4)cc3)n2)cc1`: the GI50 in the assay with HCT-15 colon was 3.1 µM and 2.3 µM; in the assay with HT29 colon it was 5.71 µM and 5.38 µM; in the assay with IGROV1 ovarian, 1.69 µM and 1.24 µM; in the assay on LOX IMVI melanoma, 1.74 µM and 1.35 µM; in the assay with MCF7 breast, 1.78 µM and 1.54 µM; with MDA-MB-435, 4.75 µM and 2.82 µM. In addition, the GI50 with NCI-H226 lung was 0.754 µM and 0.531 µM; in the assay on SK-MEL-28 melanoma, 4.49 µM and 2.56 µM; in the assay with SNB-19 CNS, 7.23 µM and 10.2 µM; in the assay with UACC-257 melanoma, > 10 µM and 4.39 µM. Besides, the TGI in the assay on HCT-15 colon is more than 100 µM; in the assay on HT29 colon, more than 100 µM; in the assay with IGROV1 ovarian, > 10 µM and 20.3 µM; in the assay on LOX IMVI melanoma, more than 44.9 µM; with MCF7 breast it was > 10 µM and 21.4 µM; in the assay with MDA-MB-435, more than 100 µM. The TGI with NCI-H226 lung was 7.01 µM and 21.1 µM; with SK-MEL-28 melanoma, > 10 µM and 20.3 µM; in the assay with SNB-19 CNS, > 10 µM and 78.4 µM; in the assay with UACC-257 melanoma, more than 100 µM.
